The numbers were not newly measured in US20030039708A1, “NON-MA HUANG HERB WEIGHT LOSS PRODUCT” (priority 2001, published 2003), which cites them from elsewhere.

Read-outs that look alike come from different tables or passages of the source.

For series [1] the following is noted: in vivo.
For series [2] the following is noted: obese patients.
Assay in series [3]: not given
The source holds these as a separate data set.

The conditions of series [4]: in combination with diet, versus diet alone.
For series [5] the following is noted: placed in water.
For series [6] the following is noted: placebo group gained weight over the length of the trial.
For series [7] the following is noted: double-blind study.

As for `O=C(O[C@@H]1Cc2c(O)cc(O)cc2O[C@@H]1c1cc(O)c(O)c(O)c1)c1cc(O)c(O)c(O)c1` [Epigallocatechin gallate], in series [1], the blood cholesterol entry was “significantly reduced”, the blood triglyceride entry is on record as “significantly reduced”, the body weight entry is given as “significantly reduced” and the food intake result is “significantly reduced”. Moreover, the “growth of the prostate, uterus, and ovary” value in series [1] is recorded as “significantly reduced”.

Regarding `[Cr]` [chromium], the abdominal fat gained (placebo group gained 6.5%) is listed as 1%. The “reduction of insulin resistance” value (statistically significant, maintained at the end of eight months) was 40%. The lean body mass result in series [2] is recorded as “increased”.

In the case of Glucomannan, the tolerability entry in series [3] (long term treatment of severe obesity) was “well tolerated”. In addition, the “weight loss in relation to the fatty mass alone” value in series [3] (severely obese patients, diet plus glucomannan) is reported as “more significant weight loss”. In series [4], the blood glucose entry is “more effective than diet alone”; the body weight entry is given as “more effective than diet alone”; the “hunger and satiety sensation” value is given as “more effective than diet alone”; the total serum cholesterol entry is listed as “more effective than diet alone”. The swelling in water entry in series [5] is “up to 17 times its original volume”. Also, the body weight change entry in series [6] is recorded as “weight loss”. Besides, in series [7], the HDL cholesterol result is given as “no significant increase”, the LDL cholesterol entry is on record as “significant reductions”, the systolic blood pressure entry was “reduced” and the total cholesterol result is recorded as “significant reductions”. In series [7], the triglycerides result is “significant reductions”.
